15 compounds from US7638540B2, “Benzofuran compound and medicinal composition containing the same” (The New Industry Research Organization, priority 2003, dated 2009) can be followed below.

The melting point is the temperature, or range, at which the solid turns liquid. `CCN(CC)C(=O)/C=C(\C)c1ccc2oc(C(C)=O)c(NC(=O)c3cnoc3C)c2c1` [Example 74, (E)-N-[2-acetyl-5-(2-diethylcarbamoyl-1-methylvinyl)benzofuran-3-yl]-5-methylisoxazole-4-carboxamide]: the melting point was in the range of 170.3 to 174.1 °C. Compound `COc1cccc2cc(C(C)NC(C)=O)oc12` (stereo not drawn) [Example 191, N-[1-(7-methoxybenzofuran-2-yl)ethyl]acetamide] yielded a melting point of 90 to 91.8 °C. Then `C/C=C/C(=O)Nc1c(C(=O)/C=C/N(C)C)oc2ccc(Br)cc12` [Example 177, (E)-2-butenoic acid [5-bromo-2-(3-dimethylamino-(E)-acryloyl)benzofuran-3-yl]amide], with 247.5 to 249.5 °C; and `COc1cccc2c(NC(=O)CC#N)c(C(=O)c3ccc(Br)cc3)oc12` [Example 198, N-[2-(4-bromobenzoyl)-7-methoxybenzofuran-3-yl]-2-cyanoacetamide], with 312.2 to 348.6 °C. `COc1ccc2oc(-c3csc(NC(=O)c4cnoc4C)n3)c(-c3ccc(Cl)cc3)c2c1` [Example 220, 5-methylisoxazole-4-carboxylic acid {4-[3-(4-chlorophenyl)-5-methoxybenzofuran-2-yl]thiazol-2-yl}amide] displayed a melting point of 216.8 to 218.7 °C.

For the compound `CC(=O)c1oc2ccc(Br)cc2c1NC(=O)/C(C#N)=C(/C)O` [Example 96, (Z)-N-(2-acetyl-5-bromobenzofuran-3-yl)-2-cyano-3-hydroxy-2-butenamide], the melting point lay within 221.9 to 222.4 °C. As for `Cc1oncc1C(=O)Nc1c(C#N)oc2ccc(Br)cc12` [Example 85, N-(5-bromo-2-cyanobenzofuran-3-yl)-5-methylisoxazole-4-carboxamide], the figure is 239.2 to 241.9 °C; as for `COc1ccc(NC(=O)/C=C/C=C(\Cl)c2cc3cccc(OCCCCl)c3o2)cc1OC` [Example 53, (2E,4Z)-5-chloro-5-[7-(3-chloropropoxy)benzofuran-2-yl]penta-2,4-dienoic acid (3,4-dimethoxyphenyl)amide], 167.5 to 169 °C; as for `CC(=O)c1oc2ccc(/C(C)=C/C(=O)N3CCN(c4ccccc4)CC3)cc2c1NC(=O)/C(C#N)=C(/C)O` [Example 95, N-{2-acetyl-5-[1-methyl-3-oxo-3-(4-phenylpiperazin-1-yl)-(E)-1-propenyl]benzofuran-3-yl}-2-cyano-3-hydroxy-(Z)-2-butenamide], 167.6 to 168.7 °C. As for `COc1ccc(CCNC(=O)/C=C(\C)c2ccc3oc(C(=O)c4ccccc4)cc3c2)cc1OC` [Example 24, (E)-3-(2-benzoylbenzofuran-5-yl)-N-[2-(3,4-dimethoxyphenyl)ethyl]-2-butenamide], the figure is 126.9 to 129.4 °C; as for `COc1ccc2oc(-c3csc(N)n3)c(-c3ccc(Cl)cc3)c2c1` [Example 218, 4-[3-(4-chlorophenyl)-5-methoxybenzofuran-2-yl]thiazol-2-ylamine], 196 to 197.7 °C; as for `COc1ccc(CCNC(=O)/C=C(\C)c2cc3cccc(OC(C)c4ccccc4)c3o2)cc1OC` (stereo not drawn) [Example 164, (E)-3-[7-(1-phenylethoxy)benzofuran-2-yl]-2-butenoic acid [2-(3,4-dimethoxyphenyl)ethyl]amide], 109 to 113 °C. Turning to `C/C(O)=C(/C#N)C(=O)NC(C)c1cc2cccc(OCC(=O)O)c2o1` (stereo not drawn) [Example 127, (E)-{2-[1-(2-cyano-3-hydroxy-2-butenoylamino)ethyl]benzofuran-7-yloxy}acetic acid], the melting point was 169.9 to 173.2 °C. Then `CCOC(=O)c1oc2ccccc2c1NC(=O)/C(C#N)=C(/C)O` [Example 107, Ethyl (Z)-3-(2-cyano-3-hydroxy-2-butenoylamino)benzofurane-2-carboxylate], with 147.5 to 150.1 °C; and `COC(=O)COc1cccc2cc(C(C)NC(=O)c3cnoc3C)oc12` (stereo not drawn) [Example 124, Methyl (2-{1-[(5-methylisoxazole-4-carbonyl)amino]ethyl}benzofuran-7-yloxy)acetate], with 111.8 to 114.6 °C.
